Target: T1, human mAChR M4 (Homo sapiens, UniProt P08173)
T1 construct: expressed in transfected cells; host or cells: CHO-K1 (American Type Culture Collection), stably expressing hM4 and Gqi5
T1 sequence (P08173 1-479): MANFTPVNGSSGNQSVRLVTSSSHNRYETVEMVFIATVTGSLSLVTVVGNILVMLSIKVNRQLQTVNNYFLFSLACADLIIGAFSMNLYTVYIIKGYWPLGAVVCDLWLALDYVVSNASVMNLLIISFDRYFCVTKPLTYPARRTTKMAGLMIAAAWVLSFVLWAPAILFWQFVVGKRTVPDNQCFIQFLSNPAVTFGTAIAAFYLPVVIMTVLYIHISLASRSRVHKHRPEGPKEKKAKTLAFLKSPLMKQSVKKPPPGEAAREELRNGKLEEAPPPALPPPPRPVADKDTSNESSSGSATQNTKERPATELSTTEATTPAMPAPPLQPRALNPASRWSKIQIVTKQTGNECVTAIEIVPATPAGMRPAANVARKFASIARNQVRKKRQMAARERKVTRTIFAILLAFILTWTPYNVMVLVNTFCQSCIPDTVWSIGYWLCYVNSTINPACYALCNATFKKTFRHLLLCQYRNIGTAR
Assay: mAChR M4 cell-based functional assay: calcium mobilization (Fluo-4, FDSS), potentiation of EC20 acetylcholine response in hM4-Gqi5 CHO-K1 cells
Conditions: human M4; for Emax at 30 µM: CHO-K1, % ACh maximum at 30 μM; for EC50: potentiation of EC20 acetylcholine response, calcium mobilization
Procedure, shortened: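 Readout is the fluorescence-ratio rise at 1 Hz on FDSS, with PAM activity taken as concentration-dependent enhancement of the EC20 acetylcholine response, fitted four-parameter for EC50/Emax. hM4-Gqi5 CHO-K1 cells carried Fluo-4 AM dye; test compounds (11 points, 1:3) preceded EC20 acetylcholine additions at 144 s and 230 s.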

Structure (SMILES) | Emax at 30 µM | EC50
COCc1cc(=O)n2nc(N3CCc4ncc(-c5cnn(C6CC6)c5)cc4C3)c(C)cc2n1 [Compound 1-364, 7-(3-(1-cyclopropyl-1H-pyrazol-4-yl)-7,8-dihydro-1,6-naphthyridin-6(5H)-yl)-2-(methoxymethyl)-8-methyl-4H-pyrimido[1,2-b]pyridazin-4-one] | 68% | 298 nM
COCc1cc(=O)n2nc(N3CCc4ncc(-c5cccnc5)cc4C3)c(C)cc2n1 [Compound 1-365, 2-(methoxymethyl)-8-methyl-7-(3-(pyridin-3-yl)-7,8-dihydro-1,6-naphthyridin-6(5H)-yl)-4H-pyrimido[1,2-b] pyridazin-4-one] | 69% | 325 nM
COCc1cc(=O)n2nc(N3CCc4ncc(-c5cnn(C)c5C)cc4C3)c(C)cc2n1 [Compound 1-366, 7-(3-(1,5-dimethyl-1H-pyrazol-4-yl)-7,8-dihydro-1,6-naphthyridin-6(5H)-yl)-2-(methoxymethyl)-8-methyl-4H-pyrimido[1,2-b]pyridazin-4-one] | 72% | 284 nM
COCc1cc(=O)n2nc(N3CCc4ncc(-c5cccs5)cc4C3)c(C)cc2n1 [Compound 1-367, 2-(methoxymethyl)-8-methyl-7-(3-(thiophen-2-yl)-7,8-dihydro-1,6-naphthyridin-6(5H)-yl)-4H-pyrimido[1,2-b] pyridazin-4-one] | 71% | 141 nM
COCc1cc(=O)n2nc(N3CCc4ncc(-c5sccc5OC)cc4C3)c(C)cc2n1 [Compound 1-368, 2-(methoxymethyl)-7-(3-(3-methoxythiophen-2-yl)-7,8-dihydro-1,6-naphthyridin-6(5H)-yl)-8-methyl-4H-pyrimido[1,2-b]pyridazin-4-one] | 95% | 293 nM
COCc1cc(=O)n2nc(N3CCc4ncc(-c5ccc(CO)s5)cc4C3)c(C)cc2n1 [Compound 1-369, 7-(3-(5-(hydroxymethyl)thiophen-2-yl)-7,8-dihydro-1,6-naphthyridin-6(5H)-yl)-2-(methoxymethyl)-8-methyl-4H-pyrimido[1,2-b] pyridazin-4-one] | 99% | 46 nM
COCc1cc(=O)n2nc(N3CCc4ncc(-c5ccsc5)cc4C3)c(C)cc2n1 [Compound 1-370, 2-(methoxymethyl)-8-methyl-7-(3-(thiophen-3-yl)-7,8-dihydro-1,6-naphthyridin-6(5H)-yl)-4H-pyrimido[1,2-b]pyridazin-4-one] | 94% | 153 nM
COCc1cc(=O)n2nc(N3CCc4ncc(-c5ccco5)cc4C3)c(C)cc2n1 [Compound 1-371, 7-(3-(furan-2-yl)-7,8-dihydro-1,6-naphthyridin-6(5H)-yl)-2-(methoxymethyl)-8-methyl-4H-pyrimido[1,2-b]pyridazin-4-one] | 92% | 140 nM
COCc1cc(=O)n2nc(N3CCc4ncc(-c5ccc(C)o5)cc4C3)c(C)cc2n1 [Compound 1-372, 2-(methoxymethyl)-8-methyl-7-(3-(5-methylfuran-2-yl)-7,8-dihydro-1,6-naphthyridin-6(5H)-yl)-4H-pyrimido[1,2-b] pyridazin-4-one] | 65% | 298 nM
COCc1cc(=O)n2nc(N3CCc4ncc(-c5ccc(OC(F)F)nc5)cc4C3)c(C)c(C)c2n1 [Compound 1-373, 7-(3-(6-(difluoromethoxy)pyridin-3-yl)-7,8-dihydro-1,6-naphthyridin-6(5H)-yl)-2-(methoxymethyl)-8,9-dimethyl-4H-pyrimido[1,2-b]pyridazin-4-one] | 64% | 299 nM
COCc1cc(=O)n2nc(N3CCc4ncc(-c5ccc(OC(F)F)nc5)cc4C3)c(C)cc2n1 [Compound 1-374, 7-(3-(6-(difluoromethoxy)pyridin-3-yl)-7,8-dihydro-1,6-naphthyridin-6(5H)-yl)-2-(methoxymethyl)-8-methyl-4H-pyrimido[1,2-b]pyridazin-4-one] | 67% | 227 nM
